Source: patent publication US20260263417A1, “STRUCTURE-BASED OPTIMIZATION OF S6K2 INHIBITOR CD02 TO TARGET MELANOMA” (THE WISTAR INSTITUTE OF ANATOMY AND BIOLOGY, priority 2023, published 2026)
Residues, ends and D or L forms follow the SMILES beside them. *: point of attachment. Cbz = O=C(OCc1ccccc1)*; CH2F = FC*

Experiments:
[1] = test system: MAPKi-R NRAS-mutant melanoma cells; type: cell-based; details: for effect on FNB/DHA-induced cell death: M93-047, GSH 2 mM, zVAD 20 μM, Kira6 0.2 μM pre-treatment; for effect on cell death induced by S6K2 depletion (S6K2 shRNA): M93-047 cells transduced with S6K2 shRNA; for effect on S6K2i (CD02)-induced cell death: MAPKi-R cells treated with CD02
Procedure: Floating and attached cells were harvested, washed and stained with PSVue 643/PI or Annexin V-FITC/PI. Annexin V staining was performed as described previously (45), with 15 min Annexin V incubation. For PSVue/PI staining, cells were incubated in 3 μM PSVue 643/TES for 10 min at RT, washed in TES buffer and resuspended in PI (5 μg/mL)/TES for 15 min at RT. Cell death (Annexin V^+/PSVue^+ or PI^+) was quantified by FACS (LSRII 18 color analyzer, BD Biosciences) and analyzed using FlowJo software v.10.7.2.

[2] = test system: pS6 (S240/244) in MAPKi-S cells; test: Phosphorylation of S6K/S6 in MAPKi-S cells (immunoblotting, RPPA, flow cytometry); type: cell-based, human
Procedure: (§1) Cells were lysed with RIPA buffer (50 mM Tris-HCl, pH 7.4, 150 mM NaCl, 1% NP-40, 0.5% sodium deoxycholate, 1 mM EDTA, 2.5 mM sodium pyrophosphate, 0.05% or 0.1% SDS) supplemented with sodium vanadate (0.2 mM) and protease inhibitor cocktail (Sigma-Aldrich #11697498001). Immunoblotting was performed as previously described (Echevarria-Vargas et al., 2018). Immunoblots were imaged with an Odyssey Infrared Imaging System (LI-COR Biosciences).
(§2) Flow cytometry. Cells were fixed in 90% ice cold EtOH/PBS and stored at −20° C. Cells were washed twice with PBS followed by 1 h incubation at RT with incubation buffer (1% BSA/PBS) containing primary antibodies (1:500 pS6 S240/244 Cell Signaling Technology #5364; 1:1000 HA Sigma-Aldrich #H9658). Samples were washed once (1×PBS), incubated for 30 min at RT with incubation buffer containing secondary antibodies diluted to 1:500 (goat anti-mouse Alexa Fluor 488 ThermoFisher #A11029; goat anti-rabbit Alexa Fluor 647 #A21244), washed (1×PBS) and resuspended in incubation buffer for analysis by flow cytometry (BD LSRII 14-color flow cytometer analyser; Alexa Fluor 488 and APC filter sets). Data analyses were performed using FlowJo software to calculate pS6 positivity. For 4-HNE staining, cells were fixed with 4% paraformaldehyde for 15 min, washed with PBS and stored at 4° C. […]

[3] = test system: pS6 (S240/244) in MAPKi-R cells; test: Phosphorylation of S6K/S6 in MAPKi-R cells (immunoblotting, RPPA, flow cytometry); type: cell-based, human
Procedure: as §1, §2

[4] = test system: spliced XBP-1 and PPARα in M93-047 cells; test: Spliced XBP-1 and PPARα levels by qRT-PCR / Western blotting; type: cell-based, human
Procedure: as §1
Cell pellets were homogenized using QIAshredder (QIagen #79656) and RNA extracted with PureLink RNA mini kit (Thermo Fisher Scientific, #12183018A). DNA was removed by on-column PureLink DNase treatment (Thermo Fisher Scientific, #12185010). First-strand cDNA was synthesized using Maxima cDNA kit (Thermo Scientific™ #K1642). Real time qPCR was performed using SYBR green PCR Master Mix (Applied Biosystems #4385612). Tumor samples for qRT-PCR were preserved in RNAlater solution (Invitrogen #AM7020).

[5] = test system: M93047 and WM3623 cell lines; test: Preliminary in vitro studies against MAPKi-R cell lines; type: cell-based, human; details: at lower concentrations

Row | SMILES | effect on FNB/DHA-induced cell death [1] | effect on cell death induced by S6K2 depletion (S6K2 shRNA) [1] | effect on S6K2i (CD02)-induced cell death [1] | also measured
1 | N[C@@H](CCC(=O)N[C@@H](CS)C(=O)NCC(=O)O)C(=O)O [GSH, glutathione] | attenuated FNB/DHA-induced cell death | also attenuated cell death | attenuate S6K2i-induced cell death | –
2 | COc1ncc(-c2ccc3nccc(-c4ccnnc4)c3c2)cc1NS(=O)(=O)c1ccc(F)cc1F [GSK458, GSK2126458] | – | – | – | phosphorylation of S6K / S6 [2]: decreased phosphorylation of S6; phosphorylation of S6K / S6 [3]: effectively suppressed pS6
3 | CC(C)(C)c1nc(-c2ccc(NC(=O)Nc3cccc(C(F)(F)F)c3)c3ccccc23)c2c(N)nccn12 [Kira6] | attenuated FNB/DHA-induced cell death | partially attenuated cell death | attenuate S6K2i-induced cell death | upregulation of XBP-1 splicing and PPARα expression caused by S6K2 knockdown ([4]; M93-047, S6K2 shRNA): suppressed; activation of XBP-1 by FNB/DHA ([4]; cotreatment with 0.2 μM Kira6): suppressed the activation of XBP-1
4 | Cn1cc(-c2ccc(F)c(C(F)(F)F)c2)nc1C1CCN(c2ncnc3[nH]ncc23)CC1 [LY2584702] | – | – | – | cytotoxicity with ectopically expressed activated S6K1 ([1]; M93-047 with S6K1^T389E, 1, 5, 10 μM, 48 hours): enhanced LY4702 cytotoxicity
5 | O=C(CCl)Nc1ccc(-c2cc(O)cc3sc(=O)oc23)cc1 [MM-113] | – | – | – | potency compared with RT12 [5]: better potency at lower concentrations
6 | CC(=O)N[C@@H](CS)C(=O)O [NAC] | – | protects M93047 cells from S6K2sh induced cell death | rescues S6K2i-induced cell death | –
7 | O=C(Nc1ccc2[nH]nc(-c3ccncc3)c2c1)[C@@H]1CCN(CC(=O)N2CCN(c3ccc(-c4ncccn4)cc3)CC2)C1 [SCH984, SCH772984] | – | – | – | phosphorylation of S6K / S6 [2]: decreased phosphorylation of S6; phosphorylation of S6K / S6 [3]: no effect on phosphorylation of S6
8 | CCOC(=O)c1ccc(NC2CCCCC2)c(N)c1 [ferrostatin-1] | – | did not attenuate cell death | – | –
9 | COC(=O)C[C@H](NC(=O)[C@H](C)NC(=O)[C@@H](NC(=O)OCc1ccccc1)C(C)C)C(=O)CF [zVAD, zVAD(OMe)-FMK] (Cbz-Val-Ala-Asp(OMe)-CH2F) | attenuated FNB/DHA-induced cell death | also attenuated cell death | attenuate S6K2i-induced cell death | –
